Test: xn = mol fraction of the nth substance listed
Conditions: Liquid; for electrical conductivity: Alternating current cell with electrodes; for viscosity: Falling or rolling sphere viscometry; for mass density: Vibrating tube method

N#CCCCCC#N [hexanedinitrile] + CCCC[N+]1(C)CCCC1.O=S(=O)([N-]S(=O)(=O)C(F)(F)F)C(F)(F)F
101 kPa
Conditions	electrical conductivity [S/m]	mass density [kg/m3]	viscosity [mPa·s]
291.8 K, x2 = 0.2889	0.495	–	–
293.15 K, x2 = 0	–	962.3	7.17
293.15 K, x2 = 0.1002	–	1063.5	9.85
293.15 K, x2 = 0.1996	–	1138	13.22
293.15 K, x2 = 0.3004	–	1196.8	17.56
293.15 K, x2 = 0.3995	–	1243	25.01
293.15 K, x2 = 0.5001	–	1281.6	31
293.15 K, x2 = 0.6	–	1313.1	37.48
293.15 K, x2 = 0.7011	–	1340	48.32
293.15 K, x2 = 0.7996	–	1362.5	59.96
293.15 K, x2 = 0.8997	–	1382.3	77.23
295.2 K, x2 = 0.2889	0.551	–	–
298.15 K, x2 = 0	–	958.6	6.31
298.15 K, x2 = 0.1002	–	1059.5	8.45
298.15 K, x2 = 0.1996	–	1133.9	11.27
298.15 K, x2 = 0.3004	–	1192.5	14.79
298.15 K, x2 = 0.3995	–	1238.7	21.46
298.15 K, x2 = 0.5001	–	1277.3	25.62
298.15 K, x2 = 0.6	–	1308.6	30.92
298.15 K, x2 = 0.7011	–	1335.6	39.22
298.15 K, x2 = 0.7996	–	1358.2	48.21
298.15 K, x2 = 0.8997	–	1378	61.49
299.3 K, x2 = 0.2889	0.62	–	–
303.15 K, x2 = 0	–	954.8	5.53
303.15 K, x2 = 0.1002	–	1055.6	7.35
303.15 K, x2 = 0.1996	–	1129.8	9.71
303.15 K, x2 = 0.3004	–	1188.3	12.61
303.15 K, x2 = 0.3995	–	1234.4	18.54
303.15 K, x2 = 0.5001	–	1272.9	21.53
303.15 K, x2 = 0.6	–	1304.2	25.59
303.15 K, x2 = 0.7011	–	1331.2	32.33
303.15 K, x2 = 0.7996	–	1353.8	39.41
303.15 K, x2 = 0.8997	–	1373.5	49.74
303.9 K, x2 = 0.2889	0.702	–	–
313.15 K, x2 = 0	–	947.2	4.54
313.15 K, x2 = 0.1002	–	1047.6	5.72
313.15 K, x2 = 0.1996	–	1121.5	7.43
313.15 K, x2 = 0.3004	–	1179.9	9.44
313.15 K, x2 = 0.3995	–	1225.8	14.05
313.15 K, x2 = 0.5001	–	1264.2	15.63
313.15 K, x2 = 0.6	–	1295.3	18.34
313.15 K, x2 = 0.7011	–	1322.3	22.83
313.15 K, x2 = 0.7996	–	1344.8	27.42
313.15 K, x2 = 0.8997	–	1364.5	34.01
313.4 K, x2 = 0.2889	0.9	–	–
322.2 K, x2 = 0.2889	1.1	–	–
323.15 K, x2 = 0	–	939.8	3.73
323.15 K, x2 = 0.1002	–	1039.8	4.53
323.15 K, x2 = 0.1996	–	1113.4	5.86
323.15 K, x2 = 0.3004	–	1171.6	7.32
323.15 K, x2 = 0.3995	–	1217.3	10.01
323.15 K, x2 = 0.5001	–	1255.6	11.82
323.15 K, x2 = 0.6	–	1286.7	13.7
323.15 K, x2 = 0.7011	–	1313.6	16.83
323.15 K, x2 = 0.7996	–	1336	19.97
323.15 K, x2 = 0.8997	–	1355.6	24.42
332.9 K, x2 = 0.2889	1.37	–	–
333.15 K, x2 = 0	–	932.3	3.02
333.15 K, x2 = 0.1002	–	1031.9	3.74
333.15 K, x2 = 0.1996	–	1105.4	4.8
333.15 K, x2 = 0.3004	–	1163.3	5.87
333.15 K, x2 = 0.3995	–	1206.3	7.86
333.15 K, x2 = 0.5001	–	1246.8	9.21
333.15 K, x2 = 0.6	–	1277.9	10.59
333.15 K, x2 = 0.7011	–	1304.7	12.85
333.15 K, x2 = 0.7996	–	1326.7	15.09
333.15 K, x2 = 0.8997	–	1346.3	18.22

N#CCCCC#N [pentanedinitrile] + CCCC[N+]1(C)CCCC1.O=S(=O)([N-]S(=O)(=O)C(F)(F)F)C(F)(F)F
Conditions	electrical conductivity, 100 kPa [S/m]	mass density, 101 kPa [kg/m3]	viscosity, 101 kPa [mPa·s]
292.9 K, x2 = 0.2589	0.572	–	–
293.15 K, x2 = 0	–	987	6.97
293.15 K, x2 = 0.1003	–	1094.2	9.92
293.15 K, x2 = 0.1997	–	1167.5	13.34
293.15 K, x2 = 0.2999	–	1222.5	17.57
293.15 K, x2 = 0.4002	–	1266.7	22.88
293.15 K, x2 = 0.5006	–	1300.5	28.92
293.15 K, x2 = 0.6003	–	1327.5	38.47
293.15 K, x2 = 0.6998	–	1349.1	48.33
293.15 K, x2 = 0.8004	–	1368.5	61.37
293.15 K, x2 = 0.9002	–	1385.4	78.19
297.4 K, x2 = 0.2589	0.651	–	–
298.15 K, x2 = 0	–	983.1	6.12
298.15 K, x2 = 0.1003	–	1090.3	8.55
298.15 K, x2 = 0.1997	–	1163.3	11.42
298.15 K, x2 = 0.2999	–	1218.1	14.81
298.15 K, x2 = 0.4002	–	1262.2	19.17
298.15 K, x2 = 0.5006	–	1296.1	23.95
298.15 K, x2 = 0.6003	–	1323.1	31.5
298.15 K, x2 = 0.6998	–	1344.8	39.56
298.15 K, x2 = 0.8004	–	1364.3	49.4
298.15 K, x2 = 0.9002	–	1380.9	62.15
303.15 K, x2 = 0	–	979.1	5.39
303.15 K, x2 = 0.1003	–	1086.2	7.42
303.15 K, x2 = 0.1997	–	1159	9.83
303.15 K, x2 = 0.2999	–	1213.8	12.69
303.15 K, x2 = 0.4002	–	1257.9	16.22
303.15 K, x2 = 0.5006	–	1291.7	20.1
303.15 K, x2 = 0.6003	–	1318.6	26.13
303.15 K, x2 = 0.6998	–	1340.3	32.56
303.15 K, x2 = 0.8004	–	1359.8	40.38
303.15 K, x2 = 0.9002	–	1376.4	50.27
304.3 K, x2 = 0.2589	0.782	–	–
313.15 K, x2 = 0	–	971.2	4.25
313.15 K, x2 = 0.1003	–	1077.9	5.78
313.15 K, x2 = 0.1997	–	1150.5	7.46
313.15 K, x2 = 0.2999	–	1205.1	9.52
313.15 K, x2 = 0.4002	–	1249	11.97
313.15 K, x2 = 0.5006	–	1282.8	14.66
313.15 K, x2 = 0.6003	–	1309.7	18.67
313.15 K, x2 = 0.6998	–	1331.3	22.97
313.15 K, x2 = 0.8004	–	1350.8	28.01
313.15 K, x2 = 0.9002	–	1367.2	34.37
314.5 K, x2 = 0.2589	1	–	–
323.15 K, x2 = 0	–	963.4	3.47
323.15 K, x2 = 0.1003	–	1069.7	4.6
323.15 K, x2 = 0.1997	–	1142	5.84
323.15 K, x2 = 0.2999	–	1196.5	7.39
323.15 K, x2 = 0.4002	–	1240.3	9.16
323.15 K, x2 = 0.5006	–	1274	11.11
323.15 K, x2 = 0.6003	–	1300.9	13.88
323.15 K, x2 = 0.6998	–	1322.5	16.93
323.15 K, x2 = 0.8004	–	1342	18.72
323.15 K, x2 = 0.9002	–	1358.2	24.65
323.2 K, x2 = 0.2589	1.21	–	–
333.15 K, x2 = 0	–	955.6	2.88
333.15 K, x2 = 0.1003	–	1061.5	3.72
333.15 K, x2 = 0.1997	–	1133.7	4.71
333.15 K, x2 = 0.2999	–	1188	5.85
333.15 K, x2 = 0.4002	–	1231.7	7.27
333.15 K, x2 = 0.5006	–	1265.2	8.67
333.15 K, x2 = 0.6003	–	1291.9	10.69
333.15 K, x2 = 0.6998	–	1313.8	13.01
333.15 K, x2 = 0.8004	–	1333	14.2
333.15 K, x2 = 0.9002	–	–	18.39
336 K, x2 = 0.2589	1.55	–	–
